We go through 19 compounds from PubChem BioAssay AID328 (DTP/NCI, 2004).

For this assay, the system named is BDF1 mice, P388 leukemia ip, median survival T/C. The experiment in a line: NCI In Vivo Anticancer Drug Screen. Data for tumor model P388 Leukemia (intraperitoneal) in B6D2F1 (BDF1) mice. The settings on record: endpoint: median survival time, higher = longer survival. In a few lines: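 In tumour-bearing mice, survival after compound treatment is set against the vehicle group and given as a quotient.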

[1] abbreviates: dose: 100.0 mg/kg/injection, schedule: Q01DX009 (ip), vehicle: Klucel (hydroxypropylcellulose) (HPC).
The mark [2] stands for this setting: dose: 100.0 mg/kg/injection, schedule: Q04DX003 (ip), vehicle: Klucel (hydroxypropylcellulose) (HPC).
The mark [3] stands for this setting: dose: 200.0 mg/kg/injection, schedule: Q04DX003 (ip), vehicle: Klucel (hydroxypropylcellulose) (HPC).
The mark [4] stands for this setting: dose: 25.0 mg/kg/injection, schedule: Q01DX009 (ip), vehicle: saline with Tween-80.
The mark [5] stands for this setting: dose: 100.0 mg/kg/injection, schedule: Q01DX009 (ip), vehicle: saline with Tween-80.
[6] abbreviates: dose: 100.0 mg/kg/injection, schedule: Q01DX009 (ip), vehicle: saline.
[7] abbreviates: dose: 100.0 mg/kg/injection, schedule: Q04DX003 (ip), vehicle: saline with Tween-80.
Setting [8] is: dose: 200.0 mg/kg/injection, schedule: Q01DX009 (ip), vehicle: saline with Tween-80.
Where [9] appears, read: dose: 200.0 mg/kg/injection, schedule: Q04DX003 (ip), vehicle: saline with Tween-80.
[10] abbreviates: dose: 400.0 mg/kg/injection, schedule: Q01DX009 (ip), vehicle: saline with Tween-80.
The mark [11] stands for this setting: dose: 400.0 mg/kg/injection, schedule: Q04DX003 (ip), vehicle: saline with Tween-80.
Setting [12] is: dose: 50.0 mg/kg/injection, schedule: Q01DX009 (ip), vehicle: saline.
[13] abbreviates: dose: 100.0 mg/kg/injection, schedule: Q04DX003 (ip), vehicle: saline.
Where [14] appears, read: dose: 200.0 mg/kg/injection, schedule: Q01DX009 (ip), vehicle: saline.
The mark [15] stands for this setting: dose: 200.0 mg/kg/injection, schedule: Q04DX003 (ip), vehicle: saline.
The mark [16] stands for this setting: dose: 400.0 mg/kg/injection, schedule: Q01DX009 (ip), vehicle: saline.

Values joined by “and” are separate entries in the source; they are usually repeats but may differ in a detail not shown here. Equal values may be shown once. Inconclusive results and toxic doses are left out.

For `OC(c1ccccc1)c1ccccc1`, the T/C by setting is: (dose: 100.0 mg/kg/injection, schedule: Q01DX001 (ip), vehicle: other) 95 % of control; (dose: 200.0 mg/kg/injection, schedule: Q01DX001 (ip), vehicle: other) 104 % of control; (dose: 400.0 mg/kg/injection, schedule: Q01DX001 (ip), vehicle: other) 100 % of control.
`COC(=O)c1cc(Cl)ccc1OCC(=O)NCc1ccc(Cl)cc1`: the T/C is, setting by setting: (dose: 100.0 mg/kg/injection, schedule: Q01DX001 (ip), vehicle: saline with Tween-80) 100 % of control; (dose: 200.0 mg/kg/injection, schedule: Q01DX001 (ip), vehicle: saline with Tween-80) 95 % of control; (dose: 400.0 mg/kg/injection, schedule: Q01DX001 (ip), vehicle: saline with Tween-80) 90 % of control.
For `Cc1cc(N(CCCl)CCCl)ccc1C=Nc1ccccc1-c1ccccc1`, the T/C is 120 % of control under setting [1]; 112 % of control under setting [2]; 116 % of control under setting [3]; 120 % of control (dose: 266.0 mg/kg/injection, schedule: Q04DX003 (ip), vehicle: Klucel (hydroxypropylcellulose) (HPC)); 150 % of control and 158 % of control (dose: 400.0 mg/kg/injection, schedule: Q01DX009 (ip), vehicle: Klucel (hydroxypropylcellulose) (HPC)); 95 % of control (dose: 400.0 mg/kg/injection, schedule: Q04DX003 (ip), vehicle: Klucel (hydroxypropylcellulose) (HPC)). The T/C (dose: 600.0 mg/kg/injection, schedule: Q01DX009 (ip), vehicle: Klucel (hydroxypropylcellulose) (HPC)) was 200 % of control and the T/C (dose: 600.0 mg/kg/injection, schedule: Q04DX003 (ip), vehicle: Klucel (hydroxypropylcellulose) (HPC)) is 154 % of control.
Take `Cc1cccc(N2CCN(CCC#N)CC2)c1`: the T/C under setting [4] is 91 % of control; the T/C (dose: 50.0 mg/kg/injection, schedule: Q01DX009 (ip), vehicle: saline with Tween-80) was 95 % of control; the T/C under setting [5] was 91 % of control.
Consider `c1csc(C[N+]23CN4CN(CN(C4)C2)C3)c1`, for which, under setting [6], the T/C was 116 % of control.
Take `O=S(=O)([O-])[O-].OCCNCCNCC[OH2+].OCCNCCNCC[OH2+].[Cu+2]`: the T/C is 94 % of control (dose: 6.25 mg/kg/injection, schedule: Q01DX009 (ip), vehicle: saline); 100 % of control (dose: 12.5 mg/kg/injection, schedule: Q01DX009 (ip), vehicle: saline); 94 % of control (dose: 25.0 mg/kg/injection, schedule: Q01DX009 (ip), vehicle: saline).
Regarding `CC12C=CC(=O)C=C1CCC1C2C(O)CC2(C)C1CCC2(O)C(=O)COC(=O)Cc1ccc(N(CCCl)CCCl)cc1` (stereo unspecified), the T/C was 97 % of control (dose: 3.5 mg/kg/injection, schedule: Q01DX009 (ip), vehicle: saline); 97 % of control (dose: 7.0 mg/kg/injection, schedule: Q01DX009 (ip), vehicle: saline); 118 % of control (dose: 14.0 mg/kg/injection, schedule: Q01DX009 (ip), vehicle: saline).
For `COC1/C=C/OC2(C)Oc3c(C)c(O)c4c(O)c(c(/C=N/NC5CCCCCCCCCCCCCC5)c(O)c4c3C2=O)NC(=O)/C(C)=C\C=C\C(C)C(O)C(C)C(O)C(C)C(OC(C)=O)C1C` (stereo unspecified), the T/C under setting [5] was 100 % of control; the T/C under setting [7] is 100 % of control; the T/C under setting [8] is 95 % of control; the T/C under setting [9] was 90 % of control; the T/C under setting [10] is 95 % of control; the T/C under setting [11] is 90 % of control.
On to `CCOC1(CC)CN(Cc2ccccc2)CCO1` (stereo unspecified), for which the T/C (dose: 100.0 mg/kg/injection, schedule: Q01DX001 (ip), vehicle: Klucel (hydroxypropylcellulose) (HPC)) was 121 % of control; the T/C (dose: 200.0 mg/kg/injection, schedule: Q01DX001 (ip), vehicle: Klucel (hydroxypropylcellulose) (HPC)) is 121 % of control; the T/C (dose: 400.0 mg/kg/injection, schedule: Q01DX001 (ip), vehicle: Klucel (hydroxypropylcellulose) (HPC)) is 115 % of control.
Regarding `COc1cccc(/C=C/[N+](=O)[O-])c1`, the T/C was 108 % of control (dose: 15.0 mg/kg/injection, schedule: Q01DX009 (ip), vehicle: saline with Tween-80); 107 % of control (dose: 20.0 mg/kg/injection, schedule: Q01DX009 (ip), vehicle: Klucel (hydroxypropylcellulose) (HPC)); 115 % of control (dose: 30.0 mg/kg/injection, schedule: Q01DX009 (ip), vehicle: Klucel (hydroxypropylcellulose) (HPC)); 100 % of control (dose: 60.0 mg/kg/injection, schedule: Q01DX009 (ip), vehicle: saline with Tween-80).
In the case of `CC(=O)Oc1ccc(OC(C)=O)c2c1CC(C)=C(C)C2`, the T/C under setting [12] is 107 % of control; the T/C under setting [6] was 113 % of control; the T/C under setting [13] is 109 % of control; the T/C under setting [14] is 109 % of control; the T/C under setting [15] is 116 % of control; the T/C under setting [16] was 118 % of control.
For `CC1(C)N=C(N)N=C(N)N1c1ccc(CCCCc2ccc(S(=O)(=O)F)cc2)cc1`, the T/C (dose: 12.0 mg/kg/injection, schedule: Q01DX009 (ip), vehicle: saline) was 150 % of control.
Take `O=C(c1cc2c3ccccc3ccc2c2ccccc12)C(Br)Br`: the T/C under setting [4] is 113 % of control.
In the case of `CC(C)(CCC(C)(C)NCCC#N)NCCC#N`, the T/C under setting [12] was 97 % of control and 104 % of control; the T/C under setting [6] was 101 % of control; the T/C under setting [13] is 98 % of control; the T/C under setting [14] is 109 % of control and 119 % of control; the T/C under setting [15] was 109 % of control; the T/C under setting [16] is 107 % of control. Further, the T/C (dose: 400.0 mg/kg/injection, schedule: Q04DX003 (ip), vehicle: saline) is 114 % of control.
With `COC(=O)c1cc(=O)nc(N/N=C/c2ccc(C)cc2)s1`, the T/C (dose: 50.0 mg/kg/injection, schedule: Q01DX005 (ip), vehicle: saline with Tween-80) was 94 % of control; the T/C (dose: 100.0 mg/kg/injection, schedule: Q01DX005 (ip), vehicle: saline with Tween-80) was 89 % of control; the T/C (dose: 200.0 mg/kg/injection, schedule: Q01DX005 (ip), vehicle: saline with Tween-80) was 99 % of control.
With `CCOc1cc(C=Nc2cccc(C(F)(F)F)c2)ccc1O`, the T/C (dose: 100.0 mg/kg/injection, schedule: Q04DX003 (ip), vehicle: other) is 95 % of control and the T/C (dose: 400.0 mg/kg/injection, schedule: Q04DX003 (ip), vehicle: other) was 95 % of control.
Turning to `COc1ccc(C(=O)N(N)C2CCCCC2)cc1`, the T/C under setting [12] is 105 % of control, the T/C under setting [6] was 105 % of control and the T/C under setting [14] is 100 % of control.
In the case of `O=Cc1ccccc1B(O)O`, the T/C was 108 % of control and 109 % of control (dose: 50.0 mg/kg/injection, schedule: Q01DX009 (ip), vehicle: Klucel (hydroxypropylcellulose) (HPC)); 92 % of control (dose: 50.0 mg/kg/injection, schedule: Q04DX003 (ip), vehicle: Klucel (hydroxypropylcellulose) (HPC)); 108 % of control and 118 % of control under setting [1]; 100 % of control under setting [2]; 107 % of control under setting [3].
For `COc1ccc2nc3cc(Cl)ccc3c(Cl)c2c1`, the T/C under setting [5] was 95 % of control; the T/C under setting [7] was 109 % of control; the T/C under setting [8] is 95 % of control; the T/C under setting [9] is 100 % of control; the T/C under setting [10] is 95 % of control; the T/C under setting [11] was 109 % of control.
